The values that follow are results of earlier work, collected in patent publication US8197795B2, “Method for monitoring early treatment response” (Receptomon, LLC, priority 2004, dated 2012).

Each structure is given as a SMILES string.

The test system of one data set is solid, malignant tumors. The conditions noted are these: patients with solid, Ranson et al. 2002.
A further data set has as its system NSCLC. The conditions noted are these: NSCLC patients treated with gefitinib; Lynch et al. 2004.
In data set [1] the test system is xenograft models, including colon cancer, non-small cell lung cancer (NSCLC), and prostate cancer. The conditions noted are these: Ranson et al.

With `COc1cc2ncnc(Nc3ccc(F)c(Cl)c3)c2cc1OCCCN1CCOCC1` [gefitinib], the activity in patients entry in the data set on solid, malignant tumors is “active”. Besides, the “patients with a rapid and often dramatic clinical response” value with NSCLC is “about 10%”. The “activity in xenograft models” value in data set [1] is “active”.
